{"source": "PubChem BioAssay (NCI)", "test_in_all_cases": "growth of human tumour cells (NCI), 48 h", "key": {"SW-620 colon": {"tested_on": "SW-620 colon"}, "SK-MEL-2 melanoma": {"tested_on": "SK-MEL-2 melanoma"}, "PC-3 prostate": {"tested_on": "PC-3 prostate"}, "HL-60(TB) leukemia": {"tested_on": "HL-60(TB) leukemia"}, "HCT-116 colon": {"tested_on": "HCT-116 colon"}, "SK-MEL-5 melanoma": {"tested_on": "SK-MEL-5 melanoma"}, "SF-539 CNS": {"tested_on": "SF-539 CNS"}, "RXF 393 renal": {"tested_on": "RXF 393 renal"}, "SN12C renal": {"tested_on": "SN12C renal"}, "M14 melanoma": {"tested_on": "M14 melanoma"}, "BT-549 breast": {"tested_on": "BT-549 breast"}, "786-0 renal": {"tested_on": "786-0 renal"}, "HCT-15 colon": {"tested_on": "HCT-15 colon"}, "SR leukemia": {"tested_on": "SR leukemia"}, "ACHN renal": {"tested_on": "ACHN renal"}, "SK-MEL-28 melanoma": {"tested_on": "SK-MEL-28 melanoma"}, "K-562 leukemia": {"tested_on": "K-562 leukemia"}, "SNB-75 CNS": {"tested_on": "SNB-75 CNS"}, "NCI-H23 lung": {"tested_on": "NCI-H23 lung"}, "A549 NSCLC": {"tested_on": "A549 NSCLC"}, "SF-295 CNS": {"tested_on": "SF-295 CNS"}, "HT29 colon": {"tested_on": "HT29 colon"}, "U251 CNS": {"tested_on": "U251 CNS"}, "SF-268 CNS": {"tested_on": "SF-268 CNS"}, "MOLT-4 leukemia": {"tested_on": "MOLT-4 leukemia"}, "SNB-19 CNS": {"tested_on": "SNB-19 CNS"}, "T-47D breast": {"tested_on": "T-47D breast"}, "MALME-3M melanoma": {"tested_on": "MALME-3M melanoma"}, "DU-145 prostate": {"tested_on": "DU-145 prostate"}}, "note": "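Cultured in 96-well plates, cells were exposed to test compound for 48 hours across five concentrations. GI50 = concentration required for 50% inhibition of growth. TGI denotes the concentration required for complete inhibition of growth.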"}
{"compound": "CCCn1cc(/C=N\\N=C2\\C(=O)Nc3ccc(C)cc32)c2ccccc21", "values": [{"measurement": "GI50", "setting": "SW-620 colon", "value": 2.97, "unit": "µM"}, {"measurement": "TGI", "setting": "SW-620 colon", "value": 35.3, "unit": "µM"}, {"measurement": "GI50", "setting": "SK-MEL-2 melanoma", "value": 2.42, "unit": "µM"}, {"measurement": "TGI", "setting": "SK-MEL-2 melanoma", "value": 8.03, "unit": "µM"}, {"measurement": "GI50", "setting": "PC-3 prostate", "value": 1.83, "unit": "µM"}, {"measurement": "TGI", "setting": "PC-3 prostate", "value": 5.17, "unit": "µM"}, {"measurement": "GI50", "setting": "HL-60(TB) leukemia", "value": 1.31, "unit": "µM"}, {"measurement": "TGI", "setting": "HL-60(TB) leukemia", "value": 4.8, "unit": "µM"}, {"measurement": "GI50", "setting": "HCT-116 colon", "value": 1.75, "unit": "µM"}, {"measurement": "TGI", "setting": "HCT-116 colon", "value": 4.17, "unit": "µM"}, {"measurement": "GI50", "setting": "SK-MEL-5 melanoma", "value": 2.86, "unit": "µM"}, {"measurement": "TGI", "setting": "SK-MEL-5 melanoma", "value": 13.5, "unit": "µM"}, {"measurement": "GI50", "setting": "SF-539 CNS", "value": 2.69, "unit": "µM"}, {"measurement": "TGI", "setting": "SF-539 CNS", "value": 17.1, "unit": "µM"}, {"measurement": "GI50", "setting": "RXF 393 renal", "value": 2.17, "unit": "µM"}, {"measurement": "TGI", "setting": "RXF 393 renal", "value": 7.94, "unit": "µM"}, {"measurement": "GI50", "setting": "SN12C renal", "value": 3.2, "unit": "µM"}, {"measurement": "TGI", "setting": "SN12C renal", "value": 75.9, "unit": "µM"}, {"measurement": "GI50", "setting": "M14 melanoma", "value": 1.92, "unit": "µM"}, {"measurement": "TGI", "setting": "M14 melanoma", "value": 4.7, "unit": "µM"}, {"measurement": "GI50", "setting": "BT-549 breast", "value": 1.79, "unit": "µM"}, {"measurement": "TGI", "setting": "BT-549 breast", "value": 6.33, "unit": "µM"}, {"measurement": "GI50", "setting": "786-0 renal", "value": 5.94, "unit": "µM"}, {"measurement": "TGI", "setting": "786-0 renal", "value": 71.2, "unit": "µM"}, {"measurement": "GI50", "setting": "HCT-15 colon", "value": 2.63, "unit": "µM"}, {"measurement": "TGI", "setting": "HCT-15 colon", "value": 42.2, "unit": "µM"}, {"measurement": "GI50", "setting": "SR leukemia", "value": 0.521, "unit": "µM"}, {"measurement": "TGI", "setting": "SR leukemia", "value": 8.72, "unit": "µM"}, {"measurement": "GI50", "setting": "ACHN renal", "value": 3.56, "unit": "µM"}, {"measurement": "TGI", "setting": "ACHN renal", "value": "> 100", "unit": "µM"}, {"measurement": "GI50", "setting": "SK-MEL-28 melanoma", "value": 4.7, "unit": "µM"}, {"measurement": "TGI", "setting": "SK-MEL-28 melanoma", "value": 36.9, "unit": "µM"}, {"measurement": "GI50", "setting": "K-562 leukemia", "value": 2.22, "unit": "µM"}, {"measurement": "TGI", "setting": "K-562 leukemia", "value": 20.5, "unit": "µM"}, {"measurement": "GI50", "setting": "SNB-75 CNS", "value": 2.31, "unit": "µM"}, {"measurement": "TGI", "setting": "SNB-75 CNS", "value": 46, "unit": "µM"}, {"measurement": "GI50", "setting": "NCI-H23 lung", "value": 3.13, "unit": "µM"}, {"measurement": "TGI", "setting": "NCI-H23 lung", "value": 38.2, "unit": "µM"}, {"measurement": "GI50", "setting": "A549 NSCLC", "value": 7.18, "unit": "µM"}, {"measurement": "TGI", "setting": "A549 NSCLC", "value": 39.6, "unit": "µM"}, {"measurement": "GI50", "setting": "SF-295 CNS", "value": 8.41, "unit": "µM"}, {"measurement": "TGI", "setting": "SF-295 CNS", "value": 96.6, "unit": "µM"}, {"measurement": "GI50", "setting": "HT29 colon", "value": 3.4, "unit": "µM"}, {"measurement": "TGI", "setting": "HT29 colon", "value": "> 100", "unit": "µM"}, {"measurement": "GI50", "setting": "U251 CNS", "value": 3.51, "unit": "µM"}, {"measurement": "TGI", "setting": "U251 CNS", "value": 17.3, "unit": "µM"}, {"measurement": "GI50", "setting": "SF-268 CNS", "value": 3.33, "unit": "µM"}, {"measurement": "TGI", "setting": "SF-268 CNS", "value": 28, "unit": "µM"}, {"measurement": "GI50", "setting": "MOLT-4 leukemia", "value": 0.682, "unit": "µM"}, {"measurement": "TGI", "setting": "MOLT-4 leukemia", "value": 4.54, "unit": "µM"}, {"measurement": "GI50", "setting": "SNB-19 CNS", "value": 4.24, "unit": "µM"}, {"measurement": "TGI", "setting": "SNB-19 CNS", "value": "> 100", "unit": "µM"}, {"measurement": "GI50", "setting": "T-47D breast", "value": 0.416, "unit": "µM"}, {"measurement": "TGI", "setting": "T-47D breast", "value": 18.4, "unit": "µM"}, {"measurement": "GI50", "setting": "MALME-3M melanoma", "value": 1.88, "unit": "µM"}, {"measurement": "TGI", "setting": "MALME-3M melanoma", "value": 6.03, "unit": "µM"}, {"measurement": "GI50", "setting": "DU-145 prostate", "value": 3.88, "unit": "µM"}]}
